# Results as given in US4596811A, “Heterocyclic compounds, a process for their production and medicaments containing these compounds” (Ludwig Heumann & Co., GmbH, priority 1982, dated 1986).
# Molecular target: T1, histamine-H2 receptors (isolated atrium) (Cavia porcellus, UniProt P47747)
# T1 construct: in vitro on the isolated atrium of guinea pigs; from tissue; host or cells: isolated guinea pig atrium
# Experiment: H2-antagonistic activity, pA2-values in vitro on the isolated atrium of guinea pigs
# Assay type: cell-based
# Settings: isolated guinea pig atrium, H2 antagonism
# From the text: An accepted method for determining H2-antagonistic activity is to determine the pA2-values in vitro on the isolated atrium of guinea pigs (cf. Ariens, Molecular Pharmacology, Vol. 1, Academic Press, New York, 1964).
# T1 sequence (P47747 whole entry): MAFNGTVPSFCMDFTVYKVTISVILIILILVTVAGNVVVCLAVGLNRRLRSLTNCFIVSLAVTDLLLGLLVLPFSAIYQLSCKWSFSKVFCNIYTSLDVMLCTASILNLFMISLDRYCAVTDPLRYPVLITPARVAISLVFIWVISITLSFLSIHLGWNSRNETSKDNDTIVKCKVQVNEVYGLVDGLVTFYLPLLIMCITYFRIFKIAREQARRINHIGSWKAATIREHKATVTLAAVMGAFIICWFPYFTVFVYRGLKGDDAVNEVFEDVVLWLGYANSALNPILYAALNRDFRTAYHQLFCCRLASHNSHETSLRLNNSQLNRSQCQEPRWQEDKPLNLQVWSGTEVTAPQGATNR
row,Kb [nM],SMILES
1,63.1,N=C(CCSCc1csc(CN2CCCCC2)c1)NS(=O)(=O)c1ccc(N)cc1 [Example 12]
2,79.4,"CN(C)Cc1cc(CSCCC(=N)NS(=O)(=O)c2ccc(N)cc2)cs1 [Example 2, N-(p-aminobenzene-sulfonyl)-3-[(2-N,N-dimethylaminomethylthienyl-4)-methylthio]-propionamidine]"
3,112,N=C(CCCCOc1cccc(CN2CCCCC2)c1)NS(=O)(=O)c1ccc(N)cc1 [Example 10]
